Assay results as given in US20100285959A1, “HERBICIDAL MIXTURES” (priority 2006, published 2010).

What was measured:
spring wheat (TRZAS) = test: Test 4 field trial, postemergence
Method: A field trial was conducted to evaluate the effects of mixtures of Compound 2 with commercial herbicides on spring wheat (TRZAS, Triticum aestivum L.) and several weed species. Wheat seeds (cv. ‘AC Intrepid’) were planted in late spring season, 3.8 cm deep in a loam soil having 2.7% organic matter and a pH of 7. Plots were 6 m long by 2.5 m wide. The field was managed using no-till practices. The plots were arranged in a randomized complete block design with each treatment being replicated four times. Treatments were applied postemergence 25 days after planting using a backpack sprayer delivering a spray volume of 55 L/ha using a pressure of 276 kPa. […] Compound 2 and clodinafop treatments, alone and in combination, also included a surfactant. Weed species present in the experimental plots in sufficient quantity to be evaluated included wild oat (AVEFA, Avena fatua L.), common lambsquarters (CHEAL, Chenopodium album L.), kochia (KCHSC, Kochia scoparia (L.) Schrad.), wild buckwheat (POLCO, Polygonum convolvulus L.), Russian thistle (SASKR, Salsola kali L. ssp. ruthenica (Iljin) Soo), and field pennycress (THLAR, Thlaspi arvense L.). […] Common lambsquarters was evaluated only at 14 days after application. […] Results are the means of the four replicates.

oak species (QUESS) = test: Test 13 field trial, postemergence, brush weeds; type: in vivo, Quercus L. spp.; settings: 56 DAA; g a.i./ha: Cpd 2 250; Fosamine-ammonium 6700
Text: Plots were established in non-crop land and were 6.1 m long by 3.0 m wide. […] Treatments were applied postemergence to the brush weeds using a backpack sprayer delivering a spray volume of 468 L/ha using a pressure of 241 kPa. […] All treatments also included a surfactant. […] Results are the means of the three replicates.

velvetleaf (ABUTH) = test: Test 17 greenhouse, post- and preemergence; type: in vivo, Abutilon theophrasti; settings: 12 DAA
Text: Plants were watered as needed.

winter wheat (TRZAW) = test: Test 24 growth chamber, postemergence; type: in vivo, Triticum aestivum; settings: 17 DAA
Method: (§1) Plants were treated postemergence at the 2-4 leaf growth stage, and each treatment was replicated three times. […] Plants were watered as needed. […] Results for barley and wheat are the means across varieties of the three replicates, and results for the weeds are the means of the three replicates.

galium (GALAP) = test: Test 24 growth chamber, postemergence; type: in vivo, Galium aparine; settings: 17 DAA
Method: as §1

kochia (KCHSC) = test: Test 24 growth chamber, postemergence; type: in vivo, Kochia scoparia; settings: 17 DAA
Method: as §1

[1] = tested on: common lambsquarters (CHEAL); test: Test 25 field trial, postemergence, growth as percent of control; type: in vivo, Chenopodium album
Text: Corn seeds (hybrid ‘Pioneer 31G96 RR’) were planted in mid spring season, 3.8 cm deep in a clay loam soil having 2% organic matter and a pH of 6.6. Plots were 6.1 m long by 3.0 m wide with rows spaced 76 cm apart. Seeds were spaced 15 cm apart within the rows. The field was managed using conventional tillage practices. […] Giant ragweed and Pennsylvania smartweed could only be evaluated 14 days after application. […] Results are the means of the three replicates. This growth inhibition data was converted to results in the form of “plant growth as a percent of control plant growth” using the calculation “100 minus growth inhibition”.
When this form of Colby's Equation is used, if the observed effects on weeds are less than the expected values, the mixture is synergistic.

jimsonweed (DATST) = test: Test 26 field trial, postemergence; type: in vivo, Datura stramonium; settings: 28 DAA
Text: Corn seeds (hybrid ‘Pioneer 31G96’) were planted in mid spring season, 3.8 cm deep in a silt loam soil having 2% organic matter and a pH of 6.6. Plots were 6.1 m long by 3.0 m wide with rows spaced 76 cm apart. Seeds were spaced 15 cm apart within the rows. The field was managed using conventional tillage practices. […] All treatments also included a surfactant. […] Some of the weed species could not be evaluated at every timing. […] Results are the means of the three replicates.

corn (ZEAMD) = test: Test 28 greenhouse, post- and preemergence; type: in vivo, Zea mays ssp. indentata; design: scale not given here; settings: 26 DAA
Method: (§2) A greenhouse test was conducted to evaluate the effects on the plant species corn (ZEAMD, Zea mays ssp. indentata), sorghum (SORVU, Sorghum vulgare L.), dry-seeded rice (ORYSA, Oryza sativa L.), wheat (TRZAW, Triticum aestivum L.), ivyleaf morningglory (IPOHE, Ipomoea hederacea (L.) JACQ.), and barnyardgrass (ECHCG, Echinochloa crus-galli (L.) P. BEAUV.), of mixtures of Compound 2 with isoxadifen-ethyl. Corn, sorghum, rice, wheat, ivyleaf morningglory and barnyardgrass seeds were planted in RediEarth, a commercial potting medium. […] Corn plants were treated postemergence at the V2 growth stage, and sorghum, rice, wheat, ivyleaf morningglory, and barnyardgrass plants were treated postemergence at the 3-leaf stage. […] Each treatment was replicated three times. […] Plants were watered as needed.

dry-seeded rice (ORYSA) = test: Test 28 greenhouse, postemergence; type: in vivo, Oryza sativa; settings: 26 DAA
Method: as §2

barnyardgrass (ECHCG) = test: Test 28 greenhouse, postemergence; type: in vivo, Echinochloa crus-galli; settings: 26 DAA
Method: as §2

Compound: COC(=O)c1nc(C2CC2)nc(N)c1Cl [Compound 2, methyl 6-amino-5-chloro-2-cyclopropyl-4-pyrimidinecarboxylate]
- TRZAS Obs (spring wheat (TRZAS); 14 DAA, Cpd 2 30 g a.i./ha alone or with clodinafop 56 or fenoxaprop 90): 0
- TRZAS Obs (spring wheat (TRZAS); 14 DAA, Cpd 2 60 g a.i./ha alone or with clodinafop 56 or fenoxaprop 90): 0
- TRZAS Obs (spring wheat (TRZAS); 35 DAA, Cpd 2 30 g a.i./ha alone or with clodinafop 56 or fenoxaprop 90): 2
- TRZAS Obs (spring wheat (TRZAS); 35 DAA, Cpd 2 60 g a.i./ha alone or with clodinafop 56 or fenoxaprop 90): 6
- TRZAS Obs (spring wheat (TRZAS); 55 DAA, Cpd 2 30 g a.i./ha alone or with clodinafop 56 or fenoxaprop 90): 3
- TRZAS Obs (spring wheat (TRZAS); 55 DAA, Cpd 2 60 g a.i./ha alone or with clodinafop 56 or fenoxaprop 90): 11
- QUESS Obs (oak species (QUESS)): 33
- Obs response, scale 0 to 100 (velvetleaf (ABUTH); Postemergence, 15 g a.i./ha): 29
- Obs response, scale 0 to 100 (velvetleaf (ABUTH); Postemergence, 30 g a.i./ha): 30
- Obs response, scale 0 to 100 (velvetleaf (ABUTH); Postemergence, 45 g a.i./ha): 45
- Obs response, scale 0 to 100 (velvetleaf (ABUTH); Preemergence, 15 g a.i./ha): 10
- Obs response, scale 0 to 100 (velvetleaf (ABUTH); Preemergence, 30 g a.i./ha): 24
- Obs response, scale 0 to 100 (velvetleaf (ABUTH); Preemergence, 45 g a.i./ha): 45
- TRZAW Obs (scale 0 to 100) (winter wheat (TRZAW); Cpd 2 4 g a.i./ha): 21
- TRZAW Obs (scale 0 to 100) (winter wheat (TRZAW); Cpd 2 8 g a.i./ha): 33
- TRZAW Obs (scale 0 to 100) (winter wheat (TRZAW); Cpd 2 16 g a.i./ha): 39
- GALAP Obs (scale 0 to 100) (galium (GALAP); Cpd 2 4 g a.i./ha): 73
- GALAP Obs (scale 0 to 100) (galium (GALAP); Cpd 2 8 g a.i./ha): 75
- GALAP Obs (scale 0 to 100) (galium (GALAP); Cpd 2 16 g a.i./ha): 87
- KCHSC Obs (scale 0 to 100) (kochia (KCHSC); Cpd 2 4 g a.i./ha): 65
- KCHSC Obs (scale 0 to 100) (kochia (KCHSC); Cpd 2 8 g a.i./ha): 77
- KCHSC Obs (scale 0 to 100) (kochia (KCHSC); Cpd 2 16 g a.i./ha): 88
- CHEAL Obs (percent of control) ([1]; Cpd 2 15 g a.i./ha, 14 DAA): 15%
- CHEAL Obs (percent of control) ([1]; Cpd 2 15 g a.i./ha, 28 DAA): 2%
- CHEAL Obs (percent of control) ([1]; Cpd 2 15 g a.i./ha, 56 DAA): 0%
- CHEAL Obs (percent of control) ([1]; Cpd 2 30 g a.i./ha, 14 DAA): 20%
- CHEAL Obs (percent of control) ([1]; Cpd 2 30 g a.i./ha, 28 DAA): 1%
- CHEAL Obs (percent of control) ([1]; Cpd 2 30 g a.i./ha, 56 DAA): 0%
- CHEAL Obs (percent of control) ([1]; Cpd 2 45 g a.i./ha, 14 DAA): 7%
- CHEAL Obs (percent of control) ([1]; Cpd 2 45 g a.i./ha, 28 DAA): 0%
- CHEAL Obs (percent of control) ([1]; Cpd 2 45 g a.i./ha, 56 DAA): 0%
- DATST Obs (jimsonweed (DATST); 30 g a.i./ha): 100
- DATST Obs (jimsonweed (DATST); 45 g a.i./ha): 100
- DATST Obs (jimsonweed (DATST); 60 g a.i./ha): 100
- ZEAMD Obs (corn (ZEAMD); postemergence, Cpd 2 32 g a.i./ha): 27
- ZEAMD Obs (corn (ZEAMD); postemergence, Cpd 2 64 g a.i./ha): 50
- ZEAMD Obs (corn (ZEAMD); preemergence, Cpd 2 32 g a.i./ha): 7
- ZEAMD Obs (corn (ZEAMD); preemergence, Cpd 2 64 g a.i./ha): 7
- ORYSA Obs (dry-seeded rice (ORYSA); Cpd 2 32 g a.i./ha): 60
- ORYSA Obs (dry-seeded rice (ORYSA); Cpd 2 64 g a.i./ha): 83
- ECHCG Obs (barnyardgrass (ECHCG); Cpd 2 32 g a.i./ha): 83
- ECHCG Obs (barnyardgrass (ECHCG); Cpd 2 64 g a.i./ha): 87
